Results: publication PMC13021292, “Safety, tolerability and pharmacokinetics of DNDI‐6148, a novel agent for leishmaniasis: A randomized, controlled, single ascending dose study in healthy participants” (British Journal of Clinical Pharmacology, 2025)
Where two headings read alike, the source gives them in different places.

Experiments:
[1] = at 1 μM; cited from earlier work
[2] = Plasma pharmacokinetics, first-in-human single ascending oral dose study
Procedure: (§1) This was a FIH, phase I, double‐blind, parallel, single ascending dose (SAD) study of DNDI‐6148 arginine monohydrate, administered as an oral suspension to healthy male participants. Cohorts 1–8 each included eight participants and were administered 10, 20, 40, 80, 160, 220, 300 or 380 mg (free form) of DNDI‐6148 (in six participants) or placebo (two participants).
(§2) At the clinical site, a suspension was prepared extemporaneously by the pharmacist within 24 h prior to administration to participants (the timepoint for which stability data of the suspension were available). The IP powder was suspended in 30 mL ORA‐Sweet® (Paddock Laboratories, LLC, Minneapolis, USA) for taste and colour masking. Participants were administered between 4 and 25 mL of the suspensions, followed by the ingestion of 250 mL tap water. Opaque precision syringes were used to administer the solutions to minimize the risk of unblinding. To preclude any dietary effects on the PK of DNDI‐6148, participants fasted for 9 h before they received the IP or placebo. Treatments were administered under the supervision of the investigator at approximately 8 a.m. on Day 1.
(§3) Blood samples (6 mL per time point) for pharmacokinetic analyses were collected on Day 1 pre‐dose and at the following post‐dose time points: 0.5,1, 1.5 (cohorts 1–4 only), 2, 2.5, 3, 4, 5 (cohorts 5–8 only), 6, 9, 12, 24, 48 and 72 h. […] Within 30 min of blood collection, blood samples were centrifuged at 1500g for 10 min at 4 °C and 500 μL of plasma were transferred into pre‐labelled polypropylene tubes prefilled with phosphoric acid 2% (1:1, v:v). Tubes were capped immediately for each time point, and the plasma was frozen in an upright position at −80 °C for storage.
(§4) Concentrations of DNDI‐6148 were determined in acidified plasma and acidified urine/BSA mixture using a validated internally standardized liquid chromatography–tandem mass spectrometry (LC–MS/MS) assay with deuterated d4‐DNDI‐6148 as an internal standard. The lower limit of quantitation (LOQ) for DNDI‐6148 was 1 ng/mL in plasma and 10 ng/mL in urine.
(§5) Values that were below the LOQ before the first concentration equal or above LOQ were set to zero. Other values below the LOQ were not used to calculate the PK parameters. The area under the plasma concentration‐time curve from time zero (pre‐dose) to the time of last quantifiable concentration (AUC0‐last) was calculated using the linear‐log trapezoidal rule. Elimination half‐life (t1/2) was calculated by the equation ln2/λz, after visual inspection of the plasma concentration‐time profiles (considering a minimum of 3 data points, including the last measurable data point and excluding Cmax).
(§6) PK parameters were derived from plasma concentration vs. time data using non‐compartmental analysis in Phoenix WinNonlin® 8.1 (Certara Inc., Princeton, NJ, USA). Plasma concentration vs. time data and PK parameters were listed and summarized by dose level, using descriptive statistics. Mean concentrations were calculated only if at least ⅔ of the individual concentrations were above the lower LOQ (LLOQ). […] Planned sampling times were used to summarize plasma concentration data; actual sampling times were used in the derivation of PK parameters.

[3] = tested on: L. donovani; details: cited from earlier work
[4] = tested on: L. infantum; details: 25 mg/kg BID for five or ten days; cited from earlier work
[5] = cited from earlier work
[6] = tested on: L. infantum; details: cited from earlier work
[7] = human, in vivo, po, 220 mg
Procedure: as §1, §2, §3, §4, §5, §6

[8] = Urinary excretion and renal clearance, single ascending oral dose study; type: in vivo, human; details: single oral 10–380 mg
Procedure: Urine was collected up to 72 h during the following intervals: pre‐dose, D1T0h – D1T12h, D1T12h – D2T24h, D2T24h – D3T48h and D3T48h – D4T72h. Urine was collected in containers containing 20 g citric acid monohydrate and stored at 4 °C for a maximum of 43 h. All urine passed during each interval period was combined and at the end of the interval, the pool of acidified urine was vigorously mixed; two aliquots were prepared, each with 1 mL of acidified urine and 1 mL of aqueous solution of 50 g/L bovine serum albumin (BSA) and 9 g/L NaCl.
Tubes of acidified urine/BSA samples were capped immediately for each time point and stored at −80 °C. Samples of both acidified plasma and acidified urine/BSA were shipped for bioanalysis on dry ice by a specialized carrier. Temperatures were monitored using a data logger during transport.

[9] = pH 7.4; cited from earlier work
[10] = Cardiac safety: ECG QTcF, QTcG, heart rate; type: in vivo, human
Procedure: Safety was assessed by monitoring AEs throughout the study. Other safety monitoring included 12‐lead ECG recordings, measurement of vital signs, physical and neurological examinations, haematology, blood biochemistry and urinalysis and, for the last four participants of the 160 mg cohort and onwards, CRP and TNFα.
Triplicate ECGs extracted from 24-hour Holter recordings at predefined time points aligned with the pharmacokinetic (PK) sampling were used for additional cardiac safety analyses. […] For the group correction, α was estimated as the slope of the linear relationship between ln(QT) and ln(RR), based on drug-free (placebo and pre-dose) data (Figure S1).

[11] = cited from earlier work; remark: listed apart in the source
[12] = tested on: L. infantum; details: 25 mg/kg BID for five days, oral; cited from earlier work
[13] = tested on: L. donovani; details: 25 mg/kg BID for five days, oral; cited from earlier work

## Cc1c(C(=O)Nc2ccc3c(c2)B(O)OC3)nnn1-c1ccccn1 [DNDI‐6148]
[1]
  CLint in hepatocytes: 0.5 μL/min/10^6 cells
[2]; 10 mg single oral dose, GM
  CL/F: 2.89 L/h
  Cmax: 155 ng/mL
  Vd/F: 52.89 L
  t1/2: 12.7 h
[2]; 10 mg single oral dose, Mean
  CL/F: 2.97 L/h
  Cmax: 156 ng/mL
  Vd/F: 53.52 L
  t1/2: 12.93 h
  tmax: 4 h
[2]; 20 mg single oral dose, GM
  CL/F: 2.76 L/h
  Cmax: 292 ng/mL
  Vd/F: 57.51 L
  t1/2: 14.42 h
[2]; 20 mg single oral dose, Mean
  CL/F: 2.84 L/h
  Cmax: 296 ng/mL
  Vd/F: 57.82 L
  t1/2: 14.73 h
  tmax: 4 h
[2]; 40 mg single oral dose, GM
  CL/F: 2.17 L/h
  Cmax: 585 ng/mL
  Vd/F: 61.18 L
  t1/2: 19.52 h
[2]; 40 mg single oral dose, Mean
  CL/F: 2.36 L/h
  Cmax: 598 ng/mL
  Vd/F: 64.01 L
  t1/2: 19.91 h
  tmax: 5 h
[2]; 80 mg single oral dose, GM
  CL/F: 2.17 L/h
  Cmax: 1011 ng/mL
  Vd/F: 69.86 L
  t1/2: 22.31 h
[2]; 80 mg single oral dose, Mean
  CL/F: 2.51 L/h
  Cmax: 1021 ng/mL
  Vd/F: 71.15 L
  t1/2: 25.43 h
  tmax: 9 h
[2]; 160 mg single oral dose, GM
  CL/F: 2.65 L/h
  Cmax: 1815.3 ng/mL
  Vd/F: 68.6 L
  t1/2: 17.92 h
[2]; 160 mg single oral dose, Mean
  CL/F: 2.83 L/h
  Cmax: 1825.3 ng/mL
  Vd/F: 70.79 L
  t1/2: 18.28 h
  tmax: 5 h
[2]; 220 mg single oral dose, GM
  CL/F: 2.42 L/h
  Cmax: 2285.4 ng/mL
  Vd/F: 80.62 L
  t1/2: 23.10 h
[2]; 220 mg single oral dose, Mean
  Cmax: 2512.3 ng/mL
  Vd/F: 81.32 L
  t1/2: 24.17 h
  tmax: 5.50 h
[2]; 300 mg single oral dose, GM
  CL/F: 3.02 L/h
  Cmax: 2959.3 ng/mL
  Vd/F: 99.99 L
  t1/2: 22.91 h
  tmax: 5.12 h
[2]; 300 mg single oral dose, Mean
  CL/F: 3.28 L/h
  Cmax: 3073.5 ng/mL
  Vd/F: 104.45 L
  t1/2: 23.39 h
  tmax: 5.00 h
[2]; 380 mg single oral dose, GM
  CL/F: 2.22 L/h
  Cmax: 3487.2 ng/mL
  Vd/F: 79.44 L
  t1/2: 24.76 h
  tmax: 5.28 h
[2]; 380 mg single oral dose, Mean
  CL/F: 2.26 L/h
  Cmax: 3606 ng/mL
  Vd/F: 79.82 L
  t1/2: 25.46 h
  tmax: 5.50 h
[2]; 10 and 20 mg doses
  GM half‐life in plasma: around 13 h
[2]; all dose levels
  median tmax, generally: 4 to 6 h
[2]; higher doses
  GM half‐life in plasma: around 20 h
[3]
  in vitro activity against L. donovani: in the micromolar range
[4]
  efficacy by oral route in L. infantum hamster model of VL: demonstrated efficacy
[5]; humans
  unbound fraction in plasma: 6.6%
[5]; species not stated
  plasma protein binding (bound): over 93%
[6]
  in vitro activity against L. infantum: in the micromolar range
[7]
  CL/F: 2.55 L/h
[8]
  fraction of the dose excreted by the kidneys as unchanged drug: below 0.2%
[9]
  logD: 1.92
[10]; 160 mg, 12 h post-dose
  largest mean ΔΔQTcG: 7.24 ms
[10]; 380 mg, 9 h post-dose
  mean ΔΔQTcG: 1.83 ms
[10]; all doses
  QTcG changes from baseline: ≤ 30 ms
  QTcG values: ≤ 450 ms
[10]; any participant
  QTcF value >500 msec or change from baseline QTcF >60 msec: No QTcF value >500 msec or change from baseline QTcF >60 msec was recorded
[10]; any single dose, concentration‐response modelling
  upper limit of the 90% CI of ΔΔQTcF: ≤ 10 ms
[10]; dose of 380 mg, concentration‐response modelling
  maximum effect on ΔΔQTcF, estimated: 1.65 (90% CI: −0.635, 3.94) msec
[11]
  CLint in human liver microsomes: below 0.3 μL/min/mg
[12]
  efficacy in L. infantum mouse model of VL: demonstrated efficacy
[13]
  efficacy in L. donovani mouse model of VL: demonstrated efficacy
